Each structure is given as a SMILES string. Toxic doses and inconclusive results are not listed.

The experiment has as its system CD2F1 mice, L1210 leukemia ip, survival T/C. As to the kind of experiment: NCI In Vivo Anticancer Drug Screen. Data for tumor model L1210 Leukemia (intraperitoneal) in CD2F1 (CDF1) mice. Conditions: endpoint: mean survival time, higher = longer survival. Summed up: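 Read-out first: treated-group measurement over vehicle-control measurement, expressed as a ratio. Animals bore a transplanted tumor line and were dosed with compound or vehicle.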

Setting [1] is: dose: 50.0 mg/kg/injection, schedule: Q01DX009 (ip), vehicle: saline with Tween-80.
The mark [2] stands for this setting: dose: 100.0 mg/kg/injection, schedule: Q01DX009 (ip), vehicle: saline with Tween-80.
[3] abbreviates: dose: 100.0 mg/kg/injection, schedule: Q04DX003 (ip), vehicle: saline with Tween-80.
Where [4] appears, read: dose: 200.0 mg/kg/injection, schedule: Q01DX009 (ip), vehicle: saline with Tween-80.
[5] abbreviates: dose: 200.0 mg/kg/injection, schedule: Q04DX003 (ip), vehicle: saline with Tween-80.
Setting [6] is: dose: 400.0 mg/kg/injection, schedule: Q01DX009 (ip), vehicle: saline with Tween-80.
Setting [7] is: dose: 100.0 mg/kg/injection, schedule: Q01DX009 (ip), vehicle: saline.
[8] abbreviates: dose: 200.0 mg/kg/injection, schedule: Q01DX009 (ip), vehicle: saline.
Setting [9] is: dose: 400.0 mg/kg/injection, schedule: Q01DX009 (ip), vehicle: saline.
Where [10] appears, read: dose: 25.0 mg/kg/injection, schedule: Q04DX003 (ip), vehicle: saline with Tween-80.
The mark [11] stands for this setting: dose: 50.0 mg/kg/injection, schedule: Q04DX003 (ip), vehicle: saline with Tween-80.
[12] abbreviates: dose: 100.0 mg/kg/injection, schedule: Q01DX001 (ip), vehicle: saline with Tween-80.
Where [13] appears, read: dose: 200.0 mg/kg/injection, schedule: Q01DX001 (ip), vehicle: saline with Tween-80.
The mark [14] stands for this setting: dose: 400.0 mg/kg/injection, schedule: Q01DX001 (ip), vehicle: saline with Tween-80.
[15] abbreviates: dose: 100.0 mg/kg/injection, schedule: Q04DX002 (ip), vehicle: saline with Tween-80.
The mark [16] stands for this setting: dose: 200.0 mg/kg/injection, schedule: Q04DX002 (ip), vehicle: saline with Tween-80.

`CCNc1nc(NCC)nc(OC)n1`: the T/C is 95 % of control under setting [1]; 105 % of control under setting [2]; 87 % of control under setting [3]; 103 % of control under setting [4]; 89 % of control under setting [5].

With `Cc1ccc(S(=O)(=O)N=S2CCCC2)cc1`, the T/C reads like this: (dose: 100.0 mg/kg/injection, schedule: Q04DX003 (ip), vehicle: other) 102 % of control; (dose: 200.0 mg/kg/injection, schedule: Q04DX003 (ip), vehicle: other) 106 % of control; (dose: 400.0 mg/kg/injection, schedule: Q04DX003 (ip), vehicle: other) 104 % of control.

As to `Nc1cc(=O)[nH]c(=S)[nH]1.[Pt]`, the T/C is 105 % of control (dose: 3.13 mg/kg/injection, schedule: Q04DX003 (ip), vehicle: distilled water + Tween-80); 100 % of control (dose: 6.25 mg/kg/injection, schedule: Q04DX003 (ip), vehicle: distilled water + Tween-80); 101 % of control (dose: 12.5 mg/kg/injection, schedule: Q04DX003 (ip), vehicle: distilled water + Tween-80); 103 % of control (dose: 25.0 mg/kg/injection, schedule: Q04DX003 (ip), vehicle: distilled water + Tween-80); 101 % of control (dose: 50.0 mg/kg/injection, schedule: Q04DX003 (ip), vehicle: distilled water + Tween-80); 99 % of control (dose: 100.0 mg/kg/injection, schedule: Q04DX003 (ip), vehicle: distilled water + Tween-80). In addition, where the note is “dose: 200.0 mg/kg/injection, schedule: Q04DX003 (ip), vehicle: distilled water + Tween-80”, the T/C was 94 % of control.

For `Cc1ccc(S(=O)(=O)Nc2ccccc2-c2nc3ccc(C)cc3c(=O)o2)cc1`, the T/C reads like this: under setting [2], 100 % of control; under setting [4], 91 % of control; under setting [6], 96 % of control.

Turning to `O=C(CCl)Nc1ccccn1`, the T/C under setting [7] is 96 % of control, the T/C under setting [8] was 102 % of control and the T/C under setting [9] is 97 % of control.

For the compound `CC(=O)C1=C(O)C(CSCc2ccccc2)N(C)C1=O` (stereo unspecified), the T/C (dose: 75.0 mg/kg/injection, schedule: Q01DX001 (ip), vehicle: other) is 95 % of control; the T/C (dose: 150.0 mg/kg/injection, schedule: Q01DX001 (ip), vehicle: other) is 92 % of control; the T/C (dose: 300.0 mg/kg/injection, schedule: Q01DX001 (ip), vehicle: other) was 91 % of control.

In the case of `O=[N+]([O-])c1cccc(N=NN2CCCC2)c1`, the T/C is 101 % of control under setting [2], 92 % of control under setting [4] and 87 % of control under setting [6].

As for `CN(C)/N=C\c1ccc([N+](C)(C)C)cc1`, the T/C (dose: 12.5 mg/kg/injection, schedule: Q04DX003 (ip), vehicle: Klucel (hydroxypropylcellulose) (HPC)) is 103 % of control; the T/C (dose: 25.0 mg/kg/injection, schedule: Q04DX003 (ip), vehicle: Klucel (hydroxypropylcellulose) (HPC)) was 109 % of control; the T/C (dose: 50.0 mg/kg/injection, schedule: Q04DX003 (ip), vehicle: Klucel (hydroxypropylcellulose) (HPC)) is 106 % of control.

Take `O=C(NCCN1CC1)c1ccccc1C(=O)NCCN1CC1`: the T/C by setting is: under setting [10], 105 % of control; under setting [11], 100 % of control; (dose: 100.0 mg/kg/injection, schedule: Q01DX001 (ip), vehicle: saline) 110 % of control; under setting [3], 117 % of control; (dose: 200.0 mg/kg/injection, schedule: Q01DX001 (ip), vehicle: saline) 164 % of control.

Turning to `O=c1nc(N2CCOCC2)ccn1C1OC(CO)C(O)C1O` (stereo unspecified), the T/C runs as follows: (dose: 100.0 mg/kg/injection, schedule: Q01DX005 (ip), vehicle: water) 104 % of control; (dose: 200.0 mg/kg/injection, schedule: Q01DX005 (ip), vehicle: water) 101 % of control; (dose: 400.0 mg/kg/injection, schedule: Q01DX005 (ip), vehicle: water) 107 % of control.

Regarding `CC1(C)CC2(OC2c2ccc([N+](=O)[O-])cc2)C(=O)c2ccccc21` (stereo unspecified), the T/C is 93 % of control (dose: 12.5 mg/kg/injection, schedule: Q01DX009 (ip), vehicle: Klucel (hydroxypropylcellulose) (HPC)); 94 % of control (dose: 25.0 mg/kg/injection, schedule: Q01DX009 (ip), vehicle: Klucel (hydroxypropylcellulose) (HPC)); 98 % of control (dose: 50.0 mg/kg/injection, schedule: Q01DX009 (ip), vehicle: Klucel (hydroxypropylcellulose) (HPC)); 93 % of control under setting [1]; 100 % of control (dose: 100.0 mg/kg/injection, schedule: Q01DX009 (ip), vehicle: Klucel (hydroxypropylcellulose) (HPC)); 93 % of control under setting [2]. The T/C was 89 % of control under setting [3]; 100 % of control (dose: 200.0 mg/kg/injection, schedule: Q01DX009 (ip), vehicle: Klucel (hydroxypropylcellulose) (HPC)); 96 % of control under setting [4]; 88 % of control under setting [5]; 96 % of control (dose: 400.0 mg/kg/injection, schedule: Q01DX009 (ip), vehicle: Klucel (hydroxypropylcellulose) (HPC)).

Turning to `CC1(c2ccccc2)OCCO1`, the T/C under setting [12] was 97 % of control; the T/C under setting [2] is 95 % of control; the T/C under setting [3] is 100 % of control; the T/C under setting [13] is 94 % of control; the T/C under setting [4] was 93 % of control; the T/C under setting [5] is 100 % of control. In addition, the T/C under setting [14] was 97 % of control; the T/C under setting [6] was 97 % of control; the T/C (dose: 400.0 mg/kg/injection, schedule: Q04DX003 (ip), vehicle: saline with Tween-80) was 97 % of control.

As to `O=S1CCCO1` (stereo unspecified), the T/C (dose: 18.8 mg/kg/injection, schedule: Q04DX003 (ip), vehicle: saline) was 101 % of control.

For `NC(=O)CC(N)C(=O)O` (stereo unspecified), the T/C (dose: 50.0 mg/kg/injection, schedule: Q01DX009 (ip), vehicle: other) was 102 % of control; the T/C (dose: 50.0 mg/kg/injection, schedule: Q01DX009 (ip), vehicle: saline) is 97 % of control; the T/C (dose: 100.0 mg/kg/injection, schedule: Q01DX009 (ip), vehicle: other) was 98 % of control; the T/C under setting [7] was 101 % of control; the T/C (dose: 200.0 mg/kg/injection, schedule: Q01DX009 (ip), vehicle: other) is 98 % of control; the T/C under setting [8] is 103 % of control. The T/C was 104 % of control (dose: 400.0 mg/kg/injection, schedule: Q01DX009 (ip), vehicle: other); 103 % of control under setting [9]; 104 % of control (dose: 800.0 mg/kg/injection, schedule: Q01DX009 (ip), vehicle: other); 100 % of control (dose: 800.0 mg/kg/injection, schedule: Q01DX009 (ip), vehicle: saline); 98 % of control (dose: 1600.0 mg/kg/injection, schedule: Q01DX009 (ip), vehicle: other); 101 % of control (dose: 1600.0 mg/kg/injection, schedule: Q01DX009 (ip), vehicle: saline).

For the compound `CCOC(=O)CNc1nc(Cl)nc(NCC(=O)OCC)n1`, the T/C under setting [12] was 87 % of control, the T/C under setting [13] is 89 % of control and the T/C under setting [14] is 91 % of control.

`Cc1oc([N+](=O)[O-])c(C)c1C(=O)O`: the T/C is, setting by setting: (dose: 50.0 mg/kg/injection, schedule: Q04DX002 (ip), vehicle: saline with Tween-80) 101 % of control; under setting [15], 97 % of control; under setting [16], 104 % of control.

For the compound `CCCCCCNC(=O)Oc1c(C/C=C/CCC(=O)O)c(OC)c(C)c2c1C(=O)OC2`, the T/C under setting [15] is 108 % of control and the T/C under setting [16] was 112 % of control.

Regarding `CCCCNCCC(=O)c1ccc(Cl)cc1`, the T/C is, setting by setting: under setting [10], 98 % of control; under setting [11], 98 % of control.

`ClC1CCC[N-]C1.ClC1CCC[N-]C1.[Cl][Pt+2]([Cl])([Cl])[Cl]` (stereo unspecified): the T/C reads like this: (dose: 0.78 mg/kg/injection, schedule: Q01DX009 (ip), vehicle: saline with Tween-80) 102 % of control; (dose: 1.56 mg/kg/injection, schedule: Q01DX009 (ip), vehicle: saline with Tween-80) 109 % of control; (dose: 3.13 mg/kg/injection, schedule: Q01DX009 (ip), vehicle: saline with Tween-80) 105 % of control; (dose: 6.25 mg/kg/injection, schedule: Q01DX009 (ip), vehicle: saline with Tween-80) 112 % of control; (dose: 12.5 mg/kg/injection, schedule: Q01DX009 (ip), vehicle: saline with Tween-80) 104 % of control.

The record behind these values is PubChem BioAssay AID256 (DTP/NCI, 2004).
